Test results as given in US20130296425A1, “PROPHYLACTIC OR THERAPEUTIC AGENT FOR A PERIPHERAL NERVE DISORDER INDUCED BY ANTI-CANCER AGENTS” (NAGOYA INDUSTRIAL SCIENCE RESEARCH INSTITUTE, priority 2011, published 2013).

System: paclitaxel-induced peripheral nerve disorder rats
Assay: Single intraperitoneal administration, hyperalgesia induced by paclitaxel (von Frey test)
Format: in vivo
Conditions: Rattus norvegicus, ip, single i.p. dose 0.3 mg/kg, higher of the values after 1 hour and 5 hours, read-out: Recovery rate of 50% reaction threshold value (%)
Protocol: Male SD rats in six weeks age (one group comprised six rats) were used as experimental animals and the paclitaxel-induced peripheral nerve disorder rats were prepared in the same manner as in the above 1.[1](2). The test drug was administered intraperitoneally in a single dose so as to make it 0.3 mg/kg in any of the cases during the period of 18 to 25 days or 20 to 27 days after initiation of administration of paclitaxel.
A von Frey test was conducted in the same manner as in the above 1.[1](4) using the rats mentioned in the above (1) and each 50% reaction threshold value was measured. With regard to the higher 50% reaction threshold value between the 50% reaction threshold values after 1 hour and 5 hours from administration of a test drug, a recovery rate (%) of the 50% reaction threshold value was calculated.
Recovery rate (%) of 50% reaction threshold value={[(50% reaction threshold value after 1 hour or 5 hours from administration of test drug)−(50% reaction threshold value before administration of test drug)]÷[(Normal threshold value)−(50% reaction threshold value before administration of test drug)]}×100

Row | SMILES | inhibition in vivo at 0.3 mg/kg
1 | CCCCCC/C=C/CC(=O)OCC [Compound 20, Trans-3-decenoic acid ethyl ester] | 14.7%
2 | CCCCCCCCCC(=O)OCC [Compound 2, Decanoic acid ethyl ester] | 22.9%
3 | C=CCCCCCCCC(=O)OCC [Compound 22, Trans-9-decenoic acid ethyl ester] | 67.9%
4 | CCCCCCC/C=C/C(=O)OC(C)(C)C [Compound 10, Trans-2-decenoic acid tert-butyl ester] | 50%
5 | CCCCCCC/C=C/COC(=O)/C=C/CCCCCCC [Compound 16, Trans-2-decenoic acid trans-2-decenyl ester] | 94.4%
6 | CCCCCCC/C=C/C(=O)OCCCCCC [Compound 11, Trans-2-decenoic acid hexyl ester] | 60.8%
7 | C=CCCCCCCCCOC(=O)/C=C/CCCCCCC [Compound 17, Trans-2-decenoic acid trans-9-decenyl ester] | 54%
8 | CCCCCCC/C=C/C(=O)OCCC [Compound 5, Trans-2-decenoic acid propyl ester] | 71.2%
9 | CCCCCCC/C=C/C(=O)OCCCCCCCCCC [Compound 14, Trans-2-decenoic acid decyl ester] | 32.2%
10 | CCCCCCC/C=C/C(=O)OCCCCCCC [Compound 12, Trans-2-decenoic acid heptyl ester] | 21.3%
11 | CCCCCCC/C=C/C(=O)OC1CCCCC1 [Compound 18, Trans-2-decenoic acid cyclohexyl ester] | 15.8%
12 | CCCCCCC/C=C/C(=O)OCCCC [Compound 7, Trans-2-decenoic acid butyl ester] | 22.7%
13 | CCCCCCC/C=C/C(=O)OC(C)C [Compound 6, Trans-2-decenoic acid isopropyl ester] | 10.2%
14 | CCCCCCC/C=C/C(=O)OC [Compound 3, Trans-2-decenoic acid methyl ester] | 63.2%

System: paclitaxel-induced peripheral nerve disorder rats
Assay: Repeated intraperitoneal administration, hyperalgesia by paclitaxel (von Frey test)
Format: in vivo, rat
Conditions: prophylactic i.p. 0.50 mg/kg/day, paclitaxel; male SD rats
Protocol: With regard to male SD rats of six weeks age used as the experimental animals, their 50% reaction threshold values to the mechanical stimulus (the measuring method will be mentioned later) and body weights were measured and then the following seven groups each comprising eight rats was organized. • Normal control group • Onset control group • Prophylactic administration group with 0.25 mg/kg/day of a test drug • Prophylactic administration group with 0.50 mg/kg/day of a test drug • Therapeutic administration group with 0.25 mg/kg/day of a test drug • Therapeutic administration group with 0.50 mg/kg/day of a test drug • Therapeutic administration group with 30 mg/kg/day of gabapentin (positive control)
Taxol (registered trademark) injection 30 mg (manufactured by Bristol-Myers Squibb) containing 6 mg/mL of paclitaxel was used. To the rats of each of the above groups except the normal control group was intraperitoneally administered paclitaxel diluted to 2 mg/mL with saline in a dose of 2 mg/kg four times every other day whereupon the paclitaxel-induced peripheral nerve disorder rats were prepared. To the normal control group, an equivalent mixture of ethanol and Cremophor EL (registered trademark; manufactured by Sigma; a solvent for Taxisol (registered trademark) injection) diluted with saline to an extent of 3-fold was administered similarly.
To prophylactic administration groups of a test drug, the compound 4 in a dose of 0.25 mg/kg/day or 0.50 mg/kg/day was repeatedly administered intraperitoneally since immediately after initiation of administration of paclitaxel until 13 days thereafter. Meanwhile, to therapeutic administration groups of a test drug and to a therapeutic administration group of gabapentin, the compound 4 in a dose of 0.25 mg/kg/day or 0.50 mg/kg/day or gabapentin in a dose of 30 mg/kg/day, respectively was repeatedly administered intraperitoneally during the period of from 14 days to 42 days after initiation of the administration of paclitaxel.
The seven groups of rats of the above (1) were placed in a transparent acrylic cage with a wire-meshed floor and habituated for about three minutes and the 50% reaction threshold values to the mechanical stimulus of right hind limb were measured after 3, 7, 14, 21, 28, 35 and 42 days from initiation of the administration of paclitaxel. Incidentally, during the period of administration of a test drug, its values were measured after 24 hours from the last administration of a test drug.
The measurement was conducted using von Frey filaments (manufactured by North Coast Medical Inc.) in accordance with the methods of Chaplan, et al. (Journal of Neuroscience Methods, vol. 53, no. 1, pages 55 to 63, 1994) and Dixon, et al. (Annual Review of Pharmacology and Toxicology, vol. 20, pages 441 to 462, 1980). […] The case where the rat escaped at the instance of removing the filament was also called positive. When the positive reaction was noted, stimulus was conducted similarly using a filament of one rank weaker while, when no reaction was noted, stimulus was conducted similarly using a filament of one rank stronger and the point when the reaction changed from negative to positive or from positive to negative was called the first two reactions. […] A 50% reaction threshold value to the mechanical stimulus was measured using the reaction to the six stimuli in total and then (mean value) ± (standard error) for each group was calculated. […]

Row | SMILES | 50% reaction threshold values to the mechanical stimulus vs onset control group
15 | CCCCCCC/C=C/C(=O)O [trans-2-decenoic acid, reference compound] | no difference from the onset control group
